Experimental findings from patent US20240239790A1, “7-Morpholino-1,6-Naphthyridin-5-yl Derivatives and Pharmaceutical Compositions Thereof Useful as DNA-PK Inhibitor” (adMare Therapeutics Society, priority 2021, published 2024) are described below.

In one series the target is T1, DNA-PK (Homo sapiens, UniProt P78527).
T1 construct: purchased Invitrogen PR9107A
Briefly: DNA-PK Assay for Biochemical Enzymatic Inhibition (ADP Glo Kinase assay). As to conditions: DNA-PK enzyme, Table 1. Put shortly: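 Human DNA-PK (25 ng) preincubated 15 min with compounds (ten three-fold dilutions) in HEPES pH 7.5, MgCl2, KCl, calf thymus DNA buffer, then substrate 434.4 μM and ATP 64.4 μM (final) for 60 min at room temperature. ADP-Glo luminescence; percent inhibition fitted by four-parameter regression for IC50.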

Series [1] addresses T2, DNA-PK phosphorylation at Serine 2056 (Homo sapiens, UniProt P78527).
T2 construct: FaDu cells were purchased from ATCC; host or cells: FaDu
Briefly: Cellular Assay for Inhibition of DNA-PK Phosphorylation at Serine 2056 in FaDu cells (sandwich ELISA, neocarzinostatin). The series is classed as cell-based. As to conditions: pSer2056 DNA-PK, neocarzinostatin 1 μg/mL, Table 1. An outline of the steps: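 FaDu cells pre-treated with compound (0.3% DMSO) for 1 h, then neocarzinostatin 1 μg/mL final added for 2 h to induce DSBs. Protein-normalised lysates read by sandwich ELISA for total and pSer2056 DNA-PK; % inhibition normalised between DMSO and NCS controls, IC50 from variable-slope log(inhibitor) fit.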
On the technique in general: ELISA stands for enzyme-linked immunosorbent assay.

Series [2] in a line: Hepatocyte Stability Assay, human hepatocytes. Particulars: for hepatocyte CLint at 1 uM: both sexes, cryopreserved hepatocytes, pH 7.3, human hepatocytes 0.7 million cells per mL, 1 uM compound; for Hepatocyte Stability Human % rem. 120 min: human hepatocytes. The series is classed as in vitro ADME. On the procedure:
Cryopreserved mouse hepatocytes were obtained from a pool of 10 or more male CD-1 mice. Cryopreserved human hepatocytes were obtained from a pool of 10 or more donors of mixed gender. Final hepatocyte density was 0.7 million viable cells per mL and test compound concentration was 1 uM with a maximum of 0.01% DMSO. Cryopreserved hepatocytes were thawed, washed, and resuspended in Krebs-Heinslet buffer (pH 7.3). The reaction was initiated by adding the test compound into cell suspension and incubated for 0, […], 1, 1.5, and 2 h, respectively, at 37° C./5% C02. The reaction was stopped by adding acetonitrile into the incubation mixture. Samples were then mixed, transferred completely to another 96-well plate, and centrifuged. Supernatants were used for HPLC-MS/MS analysis. […] Peak areas corresponding to the test compound were recorded.

For orientation: IC50 means the midpoint of a concentration-inhibition curve. The hepatocyte CLint is the capacity of the preparation to metabolise the compound, expressed as a volume cleared per time. Regarding `O=C(Cn1c(=O)n(C2CCOCC2)c2nc(N[C@H]3CC[C@@H](Oc4nc(N5CCOCC5)cc5ncccc45)CC3)ncc21)N1CCOCC1` [Compound 98, 2-(((1s,4s)-4-((7-Morpholino-1,6-naphthyridin-5-yl)oxy)cyclohexyl)amino)-7-(2-morpholino-2-oxoethyl)-9-(tetrahydro-2H-pyran-4-yl)-7,9-dihydro-8H-purin-8-one], the IC50 at DNA-PK is less than 0.5 nM. This compound displayed an IC50 in series [1] of less than 100 nM. Moreover, in series [2], the hepatocyte CLint at 1 uM was more than 8.2 µL/min/1e6 cells and the “Hepatocyte Stability Human % rem. 120 min” value was “F (% remaining = 25-50%)”.
In the case of `CN1CCN(CCOc2cnc(N[C@H]3CC[C@@H](Oc4nc(N5CCOCC5)cc5ncccc45)CC3)nc2)CC1` [Compound 69, 5-(2-(4-Methylpiperazin-1-yl)ethoxy)-N-((1s,4s)-4-((7-morpholino-1,6-naphthyridin-5-yl)oxy)cyclohexyl)pyrimidin-2-amine], on DNA-PK, the IC50 was less than 0.5 nM. For the same compound, the half-maximal inhibitory concentration (IC50) in series [1] was less than 100 nM. In addition, in series [2], the hepatocyte CLint at 1 uM is less than 8.2 µL/min/1e6 cells and the “Hepatocyte Stability Human % rem. 120 min” value is given as “G (% remaining = 50-75%)”.
`CS(=O)(=O)c1cnc2cc(N3CCOCC3)nc(O[C@H]3CC[C@@H](Nc4ncccn4)CC3)c2c1` [Compound 200b, N-((1s,4s)-4-((3-(methylsulfonyl)-7-morpholino-1,6-naphthyridin-5-yl)oxy)cyclohexyl)pyrimidin-2-amine]: at DNA-PK, the IC50 is less than 0.5 nM. Besides, in series [1], the half-inhibitory concentration (IC50) is 100 to 1000 nM. Further, in series [2], the intrinsic metabolic clearance (hepatocyte CLint) at 1 uM was less than 8.2 µL/min/1e6 cells and the “Hepatocyte Stability Human % rem. 120 min” value was “G (% remaining = 50-75%)”.
For `O=C(NO)c1cnc2cc(N3CCOCC3)nc(O[C@H]3CC[C@@H](n4ccnc4)CC3)c2c1` [Compound 172, 5-(((1s,4s)-4-(1H-imidazol-1-yl)cyclohexyl)oxy)-N-hydroxy-7-morpholino-1,6-naphthyridine-3-carboxamide], the results for the IC50 (on DNA-PK; in series [1]) were less than 0.5 nM and 1000 to 10000 nM, respectively.
In the case of `CS(=O)(=O)c1cnc2cc(N3CCOCC3)nc(O[C@H]3CC[C@@H](Nc4ncnc5ccoc45)CC3)c2c1` [Compound 204b, N-((1s,4s)-4-((3-(methylsulfonyl)-7-morpholino-1,6-naphthyridin-5-yl)oxy)cyclohexyl)furo[3,2-d]pyrimidin-4-amine], the IC50 at DNA-PK was less than 0.5 nM; in series [1], less than 100 nM. This compound also returned a hepatocyte CLint at 1 uM in series [2] of less than 8.2 µL/min/1e6 cells. Also, in series [2], the “Hepatocyte Stability Human % rem. 120 min” value was “G (% remaining = 50-75%)”.
For `CN(C)C(=O)COc1cnc(N[C@H]2CC[C@@H](Oc3nc(N4CCOCC4)cc4ncc(NS(C)(=O)=O)cc34)CC2)nc1` [Compound 182, N,N-dimethyl-2-((2-(((1s,4s)-4-((3-(methylsulfonamido)-7-morpholino-1,6-naphthyridin-5-yl)oxy)cyclohexyl)amino)pyrimidin-5-yl)oxy)acetamide], at DNA-PK, the IC50 is less than 0.5 nM. The compound further returned an IC50 in series [1] of 100 to 1000 nM. Besides, in series [2], the intrinsic metabolic clearance (hepatocyte CLint) at 1 uM is less than 8.2 µL/min/1e6 cells and the “Hepatocyte Stability Human % rem. 120 min” value is “H (% remaining = 75-100%)”.
Turning to `CN(C)C(=O)Cn1ccc(C(=O)N[C@H]2CC[C@@H](Oc3nc(N4CCOCC4)cc4ncccc34)CC2)c1` [Compound 141, 1-(2-(dimethylamino)-2-oxoethyl)-N-((1s,4s)-4-((7-morpholino-1,6-naphthyridin-5-yl)oxy)cyclohexyl)-1H-pyrrole-3-carboxamide], on DNA-PK, the IC50 was less than 0.5 nM. Also, the IC50 in series [1] was less than 100 nM. Further, in series [2], the hepatocyte CLint at 1 uM is less than 8.2 µL/min/1e6 cells and the “Hepatocyte Stability Human % rem. 120 min” value was “G (% remaining = 50-75%)”.
As to `CC(=O)NCCOc1cnc(N[C@H]2CC[C@@H](Oc3nc(N4CCOCC4)cc4ncccc34)CC2)nc1` [Compound 66], the concentration for half-maximal inhibition (IC50) at DNA-PK is 0.5 to 1 nM; in series [1], less than 100 nM. In addition, the hepatocyte CLint at 1 uM in series [2] is less than 8.2 µL/min/1e6 cells. Also, the “Hepatocyte Stability Human % rem. 120 min” value in series [2] is listed as “G (% remaining = 50-75%)”.
With `O=C(COc1cnc(N[C@H]2CC[C@@H](Oc3nc(N4CCOCC4)cc4ncccc34)CC2)nc1)N1CCNCC1` [Compound 63, 2-((2-(((1s,4s)-4-((7-Morpholino-1,6-naphthyridin-5-yl)oxy)cyclohexyl)amino)pyrimidin-5-yl)oxy)-1-(piperazin-1-yl)ethan-1-one], the IC50 on DNA-PK was less than 0.5 nM. This compound came in with an IC50 in series [1] of less than 100 nM. Further, in series [2], the hepatocyte CLint at 1 uM is more than 8.2 µL/min/1e6 cells and the “Hepatocyte Stability Human % rem. 120 min” value was “F (% remaining = 25-50%)”.
For `CS(=O)(=O)c1cnc2cc(N3CCOCC3)nc(O[C@H]3CC[C@@H](Nc4ncc(OCC(=O)N5CCOCC5)cn4)CC3)c2c1` [Compound 204a, 2-((2-(((1s,4s)-4-((3-(methylsulfonyl)-7-morpholino-1,6-naphthyridin-5-yl)oxy)cyclohexyl)amino)pyrimidin-5-yl)oxy)-1-morpholinoethan-1-one], in that order: 1 to 10 nM, 100 to 1000 nM, less than 8.2 µL/min/1e6 cells and “H (% remaining = 75-100%)”.
For the compound `CN(C)CCOc1cnc(N[C@H]2CC[C@@H](Oc3nc(N4CCOCC4)cc4ncccc34)CC2)nc1` [Compound 64, 5-(2-(Dimethylamino)ethoxy)-N-((1s,4s)-4-((7-morpholino-1,6-naphthyridin-5-yl)oxy)cyclohexyl)pyrimidin-2-amine], the IC50 at DNA-PK was less than 0.5 nM; in series [1], 100 to 1000 nM.
Turning to `O=C(Cn1c(=O)n(C2CCOCC2)c2nc(N[C@H]3CC[C@@H](Oc4nc(N5CCOCC5)cc5ncccc45)CC3)ncc21)N1CCC1` [Compound 99, 7-(2-(Azetidin-1-yl)-2-oxoethyl)-2-(((1s,4s)-4-((7-morpholino-1,6-naphthyridin-5-yl)oxy)cyclohexyl)amino)-9-(tetrahydro-2H-pyran-4-yl)-7,9-dihydro-8H-purin-8-one], the IC50 on DNA-PK was less than 0.5 nM. Further, the IC50 in series [1] is less than 100 nM. Further, in series [2], the hepatocyte CLint at 1 uM is more than 8.2 µL/min/1e6 cells and the “Hepatocyte Stability Human % rem. 120 min” value is “F (% remaining = 25-50%)”.
On the same counts, the results for `c1cnc2cc(N3CCOCC3)nc(O[C@H]3CC[C@@H](Nc4ncc(OCCN5CCOCC5)cn4)CC3)c2c1` [Compound 68, N-((1s,4s)-4-((7-Morpholino-1,6-naphthyridin-5-yl)oxy)cyclohexyl)-5-(2-morpholinoethoxy)pyrimidin-2-amine] are less than 0.5 nM, 100 to 1000 nM, more than 8.2 µL/min/1e6 cells and “F (% remaining = 25-50%)”.
For `CN(C)C(=O)Cn1c(=O)n(C2CCOCC2)c2nc(N[C@H]3CC[C@@H](Oc4nc(N5CCOCC5)cc5ncccc45)CC3)ncc21` [Compound 97, N,N-Dimethyl-2-(2-(((1s,4s)-4-((7-morpholino-1,6-naphthyridin-5-yl)oxy)cyclohexyl)amino)-8-oxo-9-(tetrahydro-2H-pyran-4-yl)-8,9-dihydro-7H-purin-7-yl)acetamide], the IC50 at DNA-PK is less than 0.5 nM; in series [1], less than 100 nM. This compound also came in with a hepatocyte CLint at 1 uM in series [2] of less than 8.2 µL/min/1e6 cells. In series [2], the “Hepatocyte Stability Human % rem. 120 min” value is “G (% remaining = 50-75%)”.
Regarding `CN(C)C(=O)Cn1ccc2nc(N[C@H]3CC[C@@H](Oc4nc(N5CCOCC5)cc5ncccc45)CC3)ncc21` [Compound 86, N,N-Dimethyl-2-(2-(((1s,4s)-4-((7-morpholino-1,6-naphthyridin-5-yl)oxy)cyclohexyl)amino)-5H-pyrrolo[3,2-d]pyrimidin-5-yl)acetamide], the IC50 on DNA-PK is less than 0.5 nM. In addition, the IC50 in series [1] is less than 100 nM. In series [2], the hepatocyte CLint at 1 uM was less than 8.2 µL/min/1e6 cells and the “Hepatocyte Stability Human % rem. 120 min” value is on record as “H (% remaining = 75-100%)”.
Regarding `CS(=O)(=O)c1cnc2cc(N3CCOCC3)nc(O[C@H]3CC[C@@H](NC(=O)c4ncco4)CC3)c2c1` [Compound 204c, N-((1s,4s)-4-((3-(methylsulfonyl)-7-morpholino-1,6-naphthyridin-5-yl)oxy)cyclohexyl)oxazole-2-carboxamide], the IC50 at DNA-PK lay within 1 to 10 nM. In series [1], this compound gave an IC50 of less than 100 nM. Besides, in series [2], the intrinsic clearance (hepatocyte CLint) at 1 uM was less than 8.2 µL/min/1e6 cells and the “Hepatocyte Stability Human % rem. 120 min” value is recorded as “H (% remaining = 75-100%)”.
As for `CS(=O)(=O)NC(=O)c1cnc2cc(N3CCOCC3)nc(O[C@H]3CC[C@@H](n4ccnc4)CC3)c2c1` [Compound 175, 5-(((1s,4s)-4-(1H-imidazol-1-yl)cyclohexyl)oxy)-N-(methylsulfonyl)-7-morpholino-1,6-naphthyridine-3-carboxamide], the IC50 at DNA-PK fell in the range of 0.5 to 1 nM; in series [1], 10000 to 30000 nM.
As for `O=C(O)c1cnc2cc(N3CCOCC3)nc(O[C@H]3CC[C@@H](n4ccnc4)CC3)c2c1` [Compound 165, 5-(((1s,4s)-4-(1H-imidazol-1-yl)cyclohexyl)oxy)-7-morpholino-1,6-naphthyridine-3-carboxylic acid], the IC50 is less than 0.5 nM at DNA-PK and 10000 to 30000 nM in series [1].
